Results from ChEMBL document CHEMBL1201862, “PubChem BioAssay data set” (2004).
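These data come from cells grown in 96-well plates and exposed to compound for 48 hours at five concentrations. GI50: concentration for 50% inhibition of growth.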 Activity calls are given as the source filed them. No stated cut-off is given here; in the data, active = GI50 up to about 1.1 µM and inactive = higher.

What was measured:
Test in all cases: NCI tumour cell line growth inhibition, 48 h
CAKI-1 = test system: CAKI-1
DU-145 = test system: DU-145
K562 = test system: K562
BT-549 = test system: BT-549
M14 = test system: M14
Malme-3M = test system: Malme-3M
IGROV-1 = test system: IGROV-1
MDA-MB-231 = test system: MDA-MB-231
SF-539 = test system: SF-539
RXF 393 = test system: RXF 393
SF-295 = test system: SF-295
SNB-75 = test system: SNB-75
HT-29 = test system: HT-29
MDA-N = test system: MDA-N
HCT-15 = test system: HCT-15
HL-60 = test system: HL-60
RPMI-8226 = test system: RPMI-8226
UACC-62 = test system: UACC-62
OVCAR-8 = test system: OVCAR-8
OVCAR-3 = test system: OVCAR-3
SF-268 = test system: SF-268
SNB-19 = test system: SNB-19
SR = test system: SR
TK-10 = test system: TK-10
A498 = test system: A498
SW-620 = test system: SW-620
UACC-257 = test system: UACC-257
NCI-H522 = test system: NCI-H522
PC-3 = test system: PC-3
HOP-92 = test system: HOP-92
NCI-H226 = test system: NCI-H226
U-251 = test system: U-251
CCRF-CEM = test system: CCRF-CEM
786-0 = test system: 786-0
LOX IMVI = test system: LOX IMVI
SK-MEL-2 = test system: SK-MEL-2
KM12 = test system: KM12
HCT-116 = test system: HCT-116
Hs-578T = test system: Hs-578T
A549 = test system: A549
NCI-H460 = test system: NCI-H460
SN12C = test system: SN12C
SK-OV-3 = test system: SK-OV-3
HCC 2998 = test system: HCC 2998
UO-31 = test system: UO-31
COLO 205 = test system: COLO 205
MOLT-4 = test system: MOLT-4
NCI-H23 = test system: NCI-H23
OVCAR-4 = test system: OVCAR-4
OVCAR-5 = test system: OVCAR-5
HOP-62 = test system: HOP-62
MDA-MB-435 = test system: MDA-MB-435
SK-MEL-28 = test system: SK-MEL-28
ACHN = test system: ACHN
T47D = test system: T47D
EKVX = test system: EKVX
MCF7 = test system: MCF7
NCI/ADR-RES = test system: NCI/ADR-RES
SK-MEL-5 = test system: SK-MEL-5

O=C1C(Cl)=C(N2CCC[C@@H]2CO)C(=O)c2c(O)ccc(O)c21
GI50 (CAKI-1): 1580 nM (inactive) | GI50 (DU-145): 1840 nM (inactive) | GI50 (K562): 347 nM (active) | GI50 (BT-549): 1900 nM (inactive) | GI50 (M14): 1670 nM (inactive) | GI50 (Malme-3M): 1640 nM (inactive) | GI50 (IGROV-1): 1790 nM (inactive) | GI50 (MDA-MB-231): 2020 nM (inactive) | GI50 (SF-539): 1920 nM (inactive) | GI50 (RXF 393): 1600 nM (inactive) | GI50 (SF-295): 1790 nM (inactive) | GI50 (SNB-75): 1690 nM (inactive) | GI50 (HT-29): 2150 nM (inactive) | GI50 (MDA-N): 1540 nM (inactive) | GI50 (HCT-15): 1870 nM | GI50 (HL-60): 485 nM (active) | GI50 (RPMI-8226): 395 nM (active) | GI50 (UACC-62): 1360 nM (inactive) | GI50 (OVCAR-8): 2000 nM (inactive) | GI50 (OVCAR-3): 1670 nM (inactive) | GI50 (SF-268): 1290 nM (inactive) | GI50 (SNB-19): 1660 nM (inactive) | GI50 (SR): 2180 nM (inactive) | GI50 (TK-10): 1880 nM (inactive) | GI50 (A498): 2900 nM (inactive) | GI50 (SW-620): 1400 nM (inactive) | GI50 (UACC-257): 1760 nM (inactive) | GI50 (NCI-H522): 1120 nM (active) | GI50 (PC-3): 1910 nM (inactive) | GI50 (HOP-92): 1660 nM (inactive) | GI50 (NCI-H226): 1710 nM (inactive) | GI50 (U-251): 1830 nM (inactive) | GI50 (CCRF-CEM): 244 nM (active) | GI50 (786-0): 1760 nM (inactive) | GI50 (LOX IMVI): 1470 nM (inactive) | GI50 (SK-MEL-2): 1570 nM (inactive) | GI50 (KM12): 1750 nM (inactive) | GI50 (HCT-116): 1440 nM (inactive) | GI50 (Hs-578T): 2060 nM (inactive) | GI50 (A549): 2080 nM (inactive) | GI50 (NCI-H460): 1730 nM (inactive) | GI50 (SN12C): 1790 nM (inactive) | GI50 (SK-OV-3): 2900 nM (inactive) | GI50 (HCC 2998): 2020 nM (inactive) | GI50 (UO-31): 1820 nM (inactive) | GI50 (COLO 205): 1550 nM (inactive) | GI50 (MOLT-4): 269 nM (active) | GI50 (NCI-H23): 1640 nM (inactive) | GI50 (OVCAR-4): 1760 nM (inactive) | GI50 (OVCAR-5): 1690 nM (inactive) | GI50 (HOP-62): 1580 nM (inactive) | GI50 (MDA-MB-435): 1510 nM (inactive) | GI50 (SK-MEL-28): 1820 nM (inactive) | GI50 (ACHN): 1600 nM (inactive) | GI50 (T47D): 1780 nM (inactive) | GI50 (EKVX): 1870 nM (inactive) | GI50 (MCF7): 1160 nM (inactive) | GI50 (NCI/ADR-RES): 2410 nM (inactive) | GI50 (SK-MEL-5): 1010 nM (active)

O=C(O)[C@@H]1C[C@@H](O)CN1C(=O)OCc1ccccc1
GI50 (CAKI-1): > 100000 nM (inactive) | GI50 (DU-145): > 100000 nM (inactive) | GI50 (K562): > 100000 nM (inactive) | GI50 (BT-549): > 100000 nM (inactive) | GI50 (M14): > 100000 nM (inactive) | GI50 (Malme-3M): > 100000 nM (inactive) | GI50 (IGROV-1): > 100000 nM (inactive) | GI50 (MDA-MB-231): > 100000 nM (inactive) | GI50 (SF-539): > 100000 nM (inactive) | GI50 (RXF 393): > 100000 nM (inactive) | GI50 (SF-295): > 100000 nM (inactive) | GI50 (SNB-75): 1160 nM (inactive) | GI50 (HT-29): > 100000 nM (inactive) | GI50 (MDA-N): > 100000 nM (inactive) | GI50 (HCT-15): > 100000 nM | GI50 (HL-60): > 100000 nM (inactive) | GI50 (RPMI-8226): > 100000 nM (inactive) | GI50 (UACC-62): > 100000 nM (inactive) | GI50 (OVCAR-8): > 100000 nM (inactive) | GI50 (OVCAR-3): > 100000 nM (inactive) | GI50 (SF-268): > 100000 nM (inactive) | GI50 (SNB-19): > 100000 nM (inactive) | GI50 (SR): > 100000 nM (inactive) | GI50 (TK-10): > 100000 nM (inactive) | GI50 (A498): > 100000 nM (inactive) | GI50 (SW-620): > 100000 nM (inactive) | GI50 (UACC-257): > 100000 nM (inactive) | GI50 (NCI-H522): > 100000 nM (inactive) | GI50 (PC-3): > 100000 nM (inactive) | GI50 (HOP-92): > 100000 nM (inactive) | GI50 (NCI-H226): > 100000 nM (inactive) | GI50 (U-251): > 100000 nM (inactive) | GI50 (CCRF-CEM): > 100000 nM (inactive) | GI50 (786-0): > 100000 nM (inactive) | GI50 (LOX IMVI): > 100000 nM (inactive) | GI50 (SK-MEL-2): > 100000 nM (inactive) | GI50 (KM12): > 100000 nM (inactive) | GI50 (HCT-116): > 100000 nM (inactive) | GI50 (Hs-578T): > 100000 nM (inactive) | GI50 (A549): > 100000 nM (inactive) | GI50 (NCI-H460): > 100000 nM (inactive) | GI50 (SN12C): > 100000 nM (inactive) | GI50 (SK-OV-3): > 100000 nM (inactive) | GI50 (HCC 2998): > 100000 nM (inactive) | GI50 (UO-31): > 100000 nM (inactive) | GI50 (COLO 205): > 100000 nM (inactive) | GI50 (MOLT-4): > 100000 nM (inactive) | GI50 (NCI-H23): > 100000 nM (inactive) | GI50 (OVCAR-4): > 100000 nM (inactive) | GI50 (OVCAR-5): > 100000 nM (inactive) | GI50 (HOP-62): > 100000 nM (inactive) | GI50 (MDA-MB-435): > 100000 nM (inactive) | GI50 (SK-MEL-28): > 100000 nM (inactive) | GI50 (ACHN): > 100000 nM (inactive) | GI50 (T47D): > 100000 nM (inactive) | GI50 (EKVX): > 100000 nM (inactive) | GI50 (MCF7): > 100000 nM (inactive) | GI50 (NCI/ADR-RES): > 100000 nM (inactive) | GI50 (SK-MEL-5): > 100000 nM (inactive)

C=CC(=O)N1C/C(=C\c2ccc(F)cc2)C(=O)/C(=C/c2ccc(F)cc2)C1
GI50 (CAKI-1): 475 nM (active) | GI50 (DU-145): 1670 nM (inactive) | GI50 (K562): 185 nM (active) | GI50 (BT-549): 336 nM (active) | GI50 (M14): 328 nM (active) | GI50 (Malme-3M): 735 nM (active) | GI50 (IGROV-1): 437 nM (active) | GI50 (MDA-MB-231): 461 nM (active) | GI50 (SF-539): 214 nM (active) | GI50 (RXF 393): 185 nM (active) | GI50 (SF-295): 440 nM (active) | GI50 (SNB-75): 350 nM (active) | GI50 (HT-29): 71 nM (active) | GI50 (MDA-N): 157 nM (active) | GI50 (HCT-15): 166 nM | GI50 (HL-60): 728 nM (active) | GI50 (RPMI-8226): 31.8 nM (active) | GI50 (UACC-62): 142 nM (active) | GI50 (OVCAR-8): 280 nM (active) | GI50 (OVCAR-3): 360 nM (active) | GI50 (SF-268): 206 nM (active) | GI50 (SNB-19): 944 nM (active) | GI50 (SR): 49.1 nM (active) | GI50 (TK-10): 1000 nM (active) | GI50 (A498): 568 nM (active) | GI50 (SW-620): 162 nM (active) | GI50 (UACC-257): 1190 nM (inactive) | GI50 (NCI-H522): 476 nM (active) | GI50 (PC-3): 215 nM (active) | GI50 (HOP-92): 3030 nM (inactive) | GI50 (NCI-H226): 352 nM (active) | GI50 (U-251): 188 nM (active) | GI50 (CCRF-CEM): 88.3 nM (active) | GI50 (786-0): 222 nM (active) | GI50 (LOX IMVI): 92.5 nM (active) | GI50 (SK-MEL-2): 843 nM (active) | GI50 (KM12): 193 nM (active) | GI50 (HCT-116): 55.7 nM (active) | GI50 (Hs-578T): 235 nM (active) | GI50 (A549): 979 nM (active) | GI50 (NCI-H460): 593 nM (active) | GI50 (SN12C): 454 nM (active) | GI50 (SK-OV-3): 711 nM (active) | GI50 (HCC 2998): 267 nM (active) | GI50 (UO-31): 849 nM (active) | GI50 (COLO 205): 391 nM (active) | GI50 (MOLT-4): 207 nM (active) | GI50 (NCI-H23): 1270 nM (inactive) | GI50 (OVCAR-4): 339 nM (active) | GI50 (OVCAR-5): 622 nM (active) | GI50 (HOP-62): 516 nM (active) | GI50 (MDA-MB-435): 299 nM (active) | GI50 (SK-MEL-28): 634 nM (active) | GI50 (ACHN): 259 nM (active) | GI50 (T47D): 4570 nM (inactive) | GI50 (EKVX): 887 nM (active) | GI50 (MCF7): 168 nM (active) | GI50 (NCI/ADR-RES): 365 nM (active) | GI50 (SK-MEL-5): 811 nM (active)
